According to patent US6753296B1, “Method for improving plant growth” (priority 2002, dated 2004):

Experiments:
Type in all cases: in vivo
[1] = tested on: Potato; assay: Crop yield of treated potato tubers; conditions: potato tubers treated at 500 g per 100 kg seed; harvested at maturity; vs untreated tubers
Description: Potato tubers are treated with the composition of the invention containing Imidacloprid, at a rate of 500 g Imidacloprid per 100 kg seed and are planted following procedures which correspond to conditions found in practice. The crop is harvested from the field at maturity. Untreated tubers from the same origin are used for comparison purposes.

[2] = tested on: Rice (Orvza sativa L. cv. Nihonbare); assay: Vigor of rice after drench treatment
Description: (§1) Plant are grown in a commercially available pathogen-free soil mixture. 2 weeks (eggplants 3 weeks) after planting seedlings are transplanted into 600 ml pots and drench treated with 10 mg Thiamethoxam in 20 ml water per pot. They were fertilised once or twice a week. Up to 10 weeks after treatment, fresh- and dry-weight of shoots and roots and numbers of leaves are determined. Protein content is measured by the method of Bradford (1976, Anal. Biochem., 72, 248-254) with BSA (bovine serum albumin) as standard: Homogenisation of leaf material in liquid N2 in a mortar. Extraction in phosphate buffer (pH 7.5, 0.1M, 2/1 vol/weight). After centrifugation supematant is separated from pellet and stored at −20° C. until protein determination. For comparison of treated and check, mg proteing/g fresh weight is calculated.
(§2) Tables B2 and B3: Differences between treated plants and Check given as factors (e.g. fresh weight of treated/Fresh weight of check). Factors >1 indicate an enhancement of vigor of treated plants. FW: fresh weight; DW: dry weight; Protein ((mg/g treated plant)/(mg/g check))

[3] = tested on: Canola; assay: Emergence of canola from treated seed; conditions: seed treatment 300 g per 100 kg seed; vs untreated seeds
Description: Canola seed is treated with the composition of the invention containing Thiamethoxam, at a rate of 300 g Thiamethoxam per 100 kg seed, and is seeded following procedures which correspond to conditions found in practice. Untreated seeds from the same origin are used for comparison purposes. Emergence (plants per meter) is evaluated. In the case of treated seeds, about 20% more plants per meter emerge that in the case of untreated plants.

[4] = tested on: Eggplant (Solanum melongena L. cv. Marfa); assay: Vigor of eggplant after drench treatment
Description: as §1, §2

In the case of `O=[N+]([O-])NC1=NCCN1Cc1ccc(Cl)nc1` [Imidacloprid], the Crop yield [1] is reported as “significantly higher”.
`CN1COCN(Cc2cnc(Cl)s2)/C1=N\[N+](=O)[O-]` [Thiamethoxam] was tested, and the “Protein ((mg/g treated plant)/(mg/g check))” value (“Protein” for short) ([2]; week 1, drench 10 mg per pot) was 1.1, the “Root DW (factor treated/check)” value ([2]; week 1, drench 10 mg per pot) was 0.8 and the “Root FW (factor treated/check)” value ([2]; week 1, drench 10 mg per pot) was 1.0. The “Shoot DW (factor treated/check)” value ([2]; week 1, drench 10 mg per pot) was 1.0, the “Shoot FW (factor treated/check)” value ([2]; week 1, drench 10 mg per pot) was 1.0 and the “Size (factor treated/check)” value ([2]; week 1, drench 10 mg per pot) was 1.0. For the same compound, the “Protein” value ([2]; week 2, drench 10 mg per pot) was 1.0, the “Root DW (factor treated/check)” value ([2]; week 2, drench 10 mg per pot) was 1.1 and the “Root FW (factor treated/check)” value ([2]; week 2, drench 10 mg per pot) was 0.8. For the same compound, the “Shoot DW (factor treated/check)” value ([2]; week 2, drench 10 mg per pot) was 1.1, the “Shoot FW (factor treated/check)” value ([2]; week 2, drench 10 mg per pot) was 1.0 and the “Size (factor treated/check)” value ([2]; week 2, drench 10 mg per pot) was 1.0. The “Protein” value ([2]; week 3, drench 10 mg per pot) was 1.0, the “Root DW (factor treated/check)” value ([2]; week 3, drench 10 mg per pot) was 1.3 and the “Root FW (factor treated/check)” value ([2]; week 3, drench 10 mg per pot) was 0.6. The “Shoot DW (factor treated/check)” value ([2]; week 3, drench 10 mg per pot) was 1.3, the “Shoot FW (factor treated/check)” value ([2]; week 3, drench 10 mg per pot) was 1.2 and the “Size (factor treated/check)” value ([2]; week 3, drench 10 mg per pot) was 1.0. For the same compound, the “Protein” value ([2]; week 4, drench 10 mg per pot) was 1.0, the “Root DW (factor treated/check)” value ([2]; week 4, drench 10 mg per pot) was 1.4 and the “Root FW (factor treated/check)” value ([2]; week 4, drench 10 mg per pot) was 1.5. The “Shoot DW (factor treated/check)” value ([2]; week 4, drench 10 mg per pot) was 1.2, the “Shoot FW (factor treated/check)” value ([2]; week 4, drench 10 mg per pot) was 1.3 and the “Size (factor treated/check)” value ([2]; week 4, drench 10 mg per pot) was 1.1. The “Protein” value ([2]; week 5, drench 10 mg per pot) was 1.0, the “Root DW (factor treated/check)” value ([2]; week 5, drench 10 mg per pot) was 0.9 and the “Root FW (factor treated/check)” value ([2]; week 5, drench 10 mg per pot) was 1.0. The “Shoot DW (factor treated/check)” value ([2]; week 5, drench 10 mg per pot) was 1.1, the “Shoot FW (factor treated/check)” value ([2]; week 5, drench 10 mg per pot) was 1.2 and the “Size (factor treated/check)” value ([2]; week 5, drench 10 mg per pot) was 1.1. The “Protein” value ([2]; week 6, drench 10 mg per pot) was 1.0, the “Root DW (factor treated/check)” value ([2]; week 6, drench 10 mg per pot) was 1.5 and the “Root FW (factor treated/check)” value ([2]; week 6, drench 10 mg per pot) was 1.6. For the same compound, the “Shoot DW (factor treated/check)” value ([2]; week 6, drench 10 mg per pot) was 1.1, the “Shoot FW (factor treated/check)” value ([2]; week 6, drench 10 mg per pot) was 1.3 and the “Size (factor treated/check)” value ([2]; week 6, drench 10 mg per pot) was 1.2. For the same compound, the “Protein” value ([2]; week 7, drench 10 mg per pot) was 1.1, the “Root DW (factor treated/check)” value ([2]; week 7, drench 10 mg per pot) was 1.3 and the “Root FW (factor treated/check)” value ([2]; week 7, drench 10 mg per pot) was 1.3. The “Shoot DW (factor treated/check)” value ([2]; week 7, drench 10 mg per pot) was 1.2, the “Shoot FW (factor treated/check)” value ([2]; week 7, drench 10 mg per pot) was 1.3 and the “Size (factor treated/check)” value ([2]; week 7, drench 10 mg per pot) was 1.1. The “Protein” value ([2]; week 8, drench 10 mg per pot) was 1.0, the “Root DW (factor treated/check)” value ([2]; week 8, drench 10 mg per pot) was 1.5 and the “Root FW (factor treated/check)” value ([2]; week 8, drench 10 mg per pot) was 1.8. The “Shoot DW (factor treated/check)” value ([2]; week 8, drench 10 mg per pot) was 1.4, the “Shoot FW (factor treated/check)” value ([2]; week 8, drench 10 mg per pot) was 1.4 and the “Size (factor treated/check)” value ([2]; week 8, drench 10 mg per pot) was 1.1. The “Protein” value ([2]; week 9, drench 10 mg per pot) was 0.9, the “Root DW (factor treated/check)” value ([2]; week 9, drench 10 mg per pot) was 1.0 and the “Root FW (factor treated/check)” value ([2]; week 9, drench 10 mg per pot) was 1.0. The “Shoot DW (factor treated/check)” value ([2]; week 9, drench 10 mg per pot) was 1.2, the “Shoot FW (factor treated/check)” value ([2]; week 9, drench 10 mg per pot) was 1.2 and the “Size (factor treated/check)” value ([2]; week 9, drench 10 mg per pot) was 1.2. The “Protein” value ([2]; week 10, drench 10 mg per pot) was 0.7, the “Root DW (factor treated/check)” value ([2]; week 10, drench 10 mg per pot) was 2.0 and the “Root FW (factor treated/check)” value ([2]; week 10, drench 10 mg per pot) was 2.0. For the same compound, the “Shoot DW (factor treated/check)” value ([2]; week 10, drench 10 mg per pot) was 1.3, the “Shoot FW (factor treated/check)” value ([2]; week 10, drench 10 mg per pot) was 1.3 and the “Size (factor treated/check)” value ([2]; week 10, drench 10 mg per pot) was 1.3. The “Emergence (plants per meter), more plants than untreated” value [3] was “about 20%”, the “Protein” value ([4]; week 1, drench 10 mg per pot) was 1.0 and the “Root DW (factor treated/check)” value ([4]; week 1, drench 10 mg per pot) was 1.0. The “Root FW (factor treated/check)” value ([4]; week 1, drench 10 mg per pot) was 1.0, the “Shoot DW (factor treated/check)” value ([4]; week 1, drench 10 mg per pot) was 0.9 and the “Shoot FW (factor treated/check)” value ([4]; week 1, drench 10 mg per pot) was 0.9. For the same compound, the “Size (factor treated/check)” value ([4]; week 1, drench 10 mg per pot) was 1.0, the “Protein” value ([4]; week 2, drench 10 mg per pot) was 1.1 and the “Root DW (factor treated/check)” value ([4]; week 2, drench 10 mg per pot) was 1.2. For the same compound, the “Root FW (factor treated/check)” value ([4]; week 2, drench 10 mg per pot) was 1.2, the “Shoot DW (factor treated/check)” value ([4]; week 2, drench 10 mg per pot) was 1.1 and the “Shoot FW (factor treated/check)” value ([4]; week 2, drench 10 mg per pot) was 0.7. The “Size (factor treated/check)” value ([4]; week 2, drench 10 mg per pot) was 1.1, the “Protein” value ([4]; week 3, drench 10 mg per pot) was 1.0 and the “Root DW (factor treated/check)” value ([4]; week 3, drench 10 mg per pot) was 1.1. For the same compound, the “Root FW (factor treated/check)” value ([4]; week 3, drench 10 mg per pot) was 1.1, the “Shoot DW (factor treated/check)” value ([4]; week 3, drench 10 mg per pot) was 1.1 and the “Shoot FW (factor treated/check)” value ([4]; week 3, drench 10 mg per pot) was 1.2. For the same compound, the “Size (factor treated/check)” value ([4]; week 3, drench 10 mg per pot) was 1.1, the “Protein” value ([4]; week 4, drench 10 mg per pot) was 1.6 and the “Root DW (factor treated/check)” value ([4]; week 4, drench 10 mg per pot) was 1.0. For the same compound, the “Root FW (factor treated/check)” value ([4]; week 4, drench 10 mg per pot) was 1.0, the “Shoot DW (factor treated/check)” value ([4]; week 4, drench 10 mg per pot) was 1.1 and the “Shoot FW (factor treated/check)” value ([4]; week 4, drench 10 mg per pot) was 1.1. The “Size (factor treated/check)” value ([4]; week 4, drench 10 mg per pot) was 1.0, the “Leaf No (factor treated/check)” value ([4]; week 5, drench 10 mg per pot) was 1.1 and the “Protein” value ([4]; week 5, drench 10 mg per pot) was 1.0. For the same compound, the “Root DW (factor treated/check)” value ([4]; week 5, drench 10 mg per pot) was 1.0, the “Root FW (factor treated/check)” value ([4]; week 5, drench 10 mg per pot) was 0.9 and the “Shoot DW (factor treated/check)” value ([4]; week 5, drench 10 mg per pot) was 1.1. The “Shoot FW (factor treated/check)” value ([4]; week 5, drench 10 mg per pot) was 1.0, the “Size (factor treated/check)” value ([4]; week 5, drench 10 mg per pot) was 1.0 and the “Leaf No (factor treated/check)” value ([4]; week 6, drench 10 mg per pot) was 1.3. For the same compound, the “Protein” value ([4]; week 6, drench 10 mg per pot) was 1.1, the “Root DW (factor treated/check)” value ([4]; week 6, drench 10 mg per pot) was 0.9 and the “Root FW (factor treated/check)” value ([4]; week 6, drench 10 mg per pot) was 0.9. For the same compound, the “Shoot DW (factor treated/check)” value ([4]; week 6, drench 10 mg per pot) was 1.3, the “Shoot FW (factor treated/check)” value ([4]; week 6, drench 10 mg per pot) was 1.3 and the “Size (factor treated/check)” value ([4]; week 6, drench 10 mg per pot) was 1.3. For the same compound, the “Leaf No (factor treated/check)” value ([4]; week 7, drench 10 mg per pot) was 1.3, the “Protein” value ([4]; week 7, drench 10 mg per pot) was 1.4 and the “Root DW (factor treated/check)” value ([4]; week 7, drench 10 mg per pot) was 0.7. For the same compound, the “Root FW (factor treated/check)” value ([4]; week 7, drench 10 mg per pot) was 0.8, the “Shoot DW (factor treated/check)” value ([4]; week 7, drench 10 mg per pot) was 1.1 and the “Shoot FW (factor treated/check)” value ([4]; week 7, drench 10 mg per pot) was 1.1. The “Size (factor treated/check)” value ([4]; week 7, drench 10 mg per pot) was 1.2, the “Leaf No (factor treated/check)” value ([4]; week 8, drench 10 mg per pot) was 1.2 and the “Protein” value ([4]; week 8, drench 10 mg per pot) was 1.4. For the same compound, the “Root DW (factor treated/check)” value ([4]; week 8, drench 10 mg per pot) was 0.6, the “Root FW (factor treated/check)” value ([4]; week 8, drench 10 mg per pot) was 0.6 and the “Shoot DW (factor treated/check)” value ([4]; week 8, drench 10 mg per pot) was 0.9. The “Shoot FW (factor treated/check)” value ([4]; week 8, drench 10 mg per pot) was 0.7, the “Size (factor treated/check)” value ([4]; week 8, drench 10 mg per pot) was 1.2 and the “Leaf No (factor treated/check)” value ([4]; week 9, drench 10 mg per pot) was 1.6. For the same compound, the “Protein” value ([4]; week 9, drench 10 mg per pot) was 2.5, the “Root DW (factor treated/check)” value ([4]; week 9, drench 10 mg per pot) was 1.1 and the “Root FW (factor treated/check)” value ([4]; week 9, drench 10 mg per pot) was 0.9. For the same compound, the “Shoot DW (factor treated/check)” value ([4]; week 9, drench 10 mg per pot) was 1.1, the “Shoot FW (factor treated/check)” value ([4]; week 9, drench 10 mg per pot) was 0.7 and the “Size (factor treated/check)” value ([4]; week 9, drench 10 mg per pot) was 1.4. For the same compound, the “Leaf No (factor treated/check)” value ([4]; week 10, drench 10 mg per pot) was 1.4, the “Protein” value ([4]; week 10, drench 10 mg per pot) was 1.3 and the “Root DW (factor treated/check)” value ([4]; week 10, drench 10 mg per pot) was 1.3. The “Root FW (factor treated/check)” value ([4]; week 10, drench 10 mg per pot) was 1.1, the “Shoot DW (factor treated/check)” value ([4]; week 10, drench 10 mg per pot) was 1.1 and the “Shoot FW (factor treated/check)” value ([4]; week 10, drench 10 mg per pot) was 1.1. The “Size (factor treated/check)” value ([4]; week 10, drench 10 mg per pot) was 1.4.
